# Measured values published in US8895727B2, “Method for preparation of fluorine-18-labeled flumazenil using diaryliodonium salt precursor” (priority 2011, dated 2014).
# Experiment: Stability of diaryliodonium salt precursors under heating and base conditions (HPLC of by-products I-mazenil and H-mazenil)
# Assay type: physicochemical
# Conditions: for relative instability of precursor (stability of 8f set forth to be 1.00): 150° C., 15 min, K2.2.2./K2CO3 in dimethylformamide, without fluorine-18, ratio relative to 8f (FIG. 6)
# Procedure: Contrary to the expectation that the diaryliodonium salt precursors (8b to 8e) could be labeled at higher yields than precursor 8a thanks to their higher electron densities, a lower labeling yield of fluorine18 was detected for them at high temperatures in the presence of a base. This might be accounted by the significance of the stability of the precursors. To verify this, the precursors were analyzed for stability in the […] to examine the reactivity of each precursor. In the following Reaction Scheme 2, the degradation of each diaryliodonium salt precursor in the presence of base under a heating condition is illustrated. As shown, two compounds I-mazenil (9) and H-mazenil (10) are formed, and their concentrations reflect the stability of the diaryliodonium salt precursor.
# The diaryliodonium salt precursors whose aromatic rings are richer in electron density, compared to phenyl-mazenil-iodonium salt (8a), are more apt to be affected by the reaction conditions for aromatic fluorination with fluorine-18. […] To examine the selectivity and stability of the diaryliodonium salts, the production of the by-products I-mazenil (9) and H-mazenil(10) which are degraded from the precursors due to their instability in a condition free of fluorine-18 was analyzed using HPLC. […]
# After each diaryliodonium salt precursor was thermally treated 150° C. for 15 min in the presence of kryptofix2.2.2./potassium carbonate (K2.2.2./K2CO3) in dimethylformamide, without fluorine-18, measurement was made of the concentrations of 1-mazenil (9) and H-mazenil (10) to evaluate the stability of each precursor (FIG. 6). In addition, the labeling reactivity of the diaryliodonium salt precursors into [19F]flumazenil was assessed by reacting them with cesium fluoride at 90° C. for 120 min in dimethylformamide (FIG. 7). […]
Structure (SMILES),relative instability of precursor (stability of 8f set forth to be 1.00),"stability among the diaryliodonium salt precursors (potassium carbonate and 150° C., similar results with TBAHCO3 and TBAOH (FIG. 6))"
"CCOC(=O)c1ncn2c1CN(C)C(=O)c1cc([I+]c3ccccc3)ccc1-2.Cc1ccc(S(=O)(=O)[O-])cc1 [Precursor 8a, ethyl 8-phenyl(iodonium tosylate)-5,6-dihydro-5-methyl-6-oxo-4H-imidazo[1,5-a][1,4]benzodiazepine-3-carboxylate]",1.11,
"CCOC(=O)c1ncn2c1CN(C)C(=O)c1cc([I+]c3ccc(C)cc3)ccc1-2.Cc1ccc(S(=O)(=O)[O-])cc1 [Precursor 8f, ethyl 8-(4-methylphenyl)(iodonium tosylate)-5,6-dihydro-5-methyl-6-oxo-4H-imidazo[1,5-a][1,4]benzodiazepine-3-carboxylate]",1.00,the most stable
